Data from patent publication US8338334B2, “Synergistic herbicidal composition containing fluroxypyr and quinclorac” (Dow AgroSciences, LLC, priority 2010, dated 2012).
Several values for one entry are separate records, joined by “and”; a condition that tells them apart may be missing. Equal values may be shown once.

How the values were obtained:
Test in all cases: Postemergence herbicidal activity in the greenhouse, visual weed control
Format in all cases: in vivo
Conditions in all cases: 21 DAA
[1] = tested on: barnyardgrass (Echinochloa crus-galli; ECHCG)
Protocol: (§1) Seeds of the desired test plant species were planted in 80% mineral soil/20% grit planting mixture, which typically has a pH of 7.2 and an organic matter content of about 2.9 percent, in plastic pots with a surface area of 128 square centimeters (cm^2). The growing medium was steam sterilized. The plants were grown for 7-19 days in a greenhouse with an approximate 14-hour (h) photoperiod which was maintained at about 29° C. during the day and 26° C. during the night. Nutrients and water were added on a regular basis and supplemental lighting was provided with overhead metal halide 1000-Watt lamps as necessary. The plants were treated with postemergence foliar applications when they reached the third to fourth true leaf stage. All treatments were applied using a randomized complete block trial design, with 4 replications per treatment.
(§2) Treatments consisted of the compounds as listed in Table 1 for each compound applied alone and in combination. Formulated amounts of quinclorac and fluroxypyr-meptyl ester were placed in 60 milliliter (mL) glass vials and dissolved in a volume of 60 mL of a water solution containing Agri-dex crop oil concentrate in a 1% volume per volume (v/v) ratio. Compound requirements are based upon a 12 mL application volume at a rate of 187 liters per hectare (L/ha). Spray solutions of the mixtures were prepared by adding the stock solutions to the appropriate amount of dilution solution to form 12 mL spray solution with active ingredients in single and two way combinations. Formulated compounds were applied to the plant material with an overhead Mandel track sprayer equipped with 8002E nozzles calibrated to deliver 187 L/ha at a spray height of 18 inches (43 centimeters (cm)) above average plant canopy.
(§3) The treated plants and control plants were placed in a greenhouse as described above and watered by sub-irrigation to prevent wash-off of the test compounds. Treatments were rated at 21 days after application (DAA) as compared to the untreated control plants. Visual weed control was scored on a scale of 0 to 100 percent where 0 corresponds to no injury and 100 corresponds to complete kill.
(§4) All treatment results, both for the single product and mixtures, are an average of 4 replicates evaluated at 21 days after application, and the tank mix interactions are significant at the […] level.
(§5) Colby's equation was used to determine the herbicidal effects expected from the mixtures (Colby, S. R. Calculation of the synergistic and antagonistic response of herbicide combinations. Weeds 1967, 15, 20-22.).
(§6) The following equation was used to calculate the expected activity of mixtures containing two active ingredients, A and B: Expected=A+B−(A×B/100)

[2] = tested on: broadleaf signalgrass (Brachiaria platyphylla; BRAPP)
Protocol: as §1, §2, §3, §4, §5, §6

[3] = tested on: Chinese sprangletop (Leptochloa chinensis; LEFCH)
Protocol: as §1, §2, §3, §4, §5, §6

[4] = fluroxypyr-meptyl 50 g ae/ha alone
[5] = fluroxypyr-meptyl 100 g ae/ha alone
[6] = fluroxypyr-meptyl 200 g ae/ha alone

| Compound | % Control ECHCG Ob (observed value) [1, 4] | % Control ECHCG Ob (observed value) [1, 5] | % Control ECHCG Ob (observed value) [1, 6] | % Control BRAPP Ob (observed value) [2, 4] | % Control BRAPP Ob (observed value) [2, 5] | % Control BRAPP Ob (observed value) [2, 6] | % Control LEFCH Ob (observed value) [3, 5] | % Control LEFCH Ob (observed value) [3, 6] | % Control ECHCG Ob (observed value) ([1]; quinclorac 26 g ai/ha alone) | % Control ECHCG Ob (observed value) ([1]; quinclorac 53 g ai/ha alone) | % Control ECHCG Ob (observed value) ([1]; quinclorac 110 g ai/ha alone) | % Control ECHCG Ob (observed value) ([1]; quinclorac 220 g ai/ha alone) | % Control BRAPP Ob (observed value) ([2]; quinclorac 26 g ai/ha alone) | % Control BRAPP Ob (observed value) ([2]; quinclorac 53 g ai/ha alone) | % Control BRAPP Ob (observed value) ([2]; quinclorac 110 g ai/ha alone) | % Control BRAPP Ob (observed value) ([2]; quinclorac 220 g ai/ha alone) | % Control LEFCH Ob (observed value) ([3]; quinclorac 26 g ai/ha alone) | % Control LEFCH Ob (observed value) ([3]; quinclorac 53 g ai/ha alone) | % Control LEFCH Ob (observed value) ([3]; quinclorac 110 g ai/ha alone) | % Control LEFCH Ob (observed value) ([3]; quinclorac 220 g ai/ha alone) |
| --- | --- | --- | --- | --- | --- | --- | --- | --- | --- | --- | --- | --- | --- | --- | --- | --- | --- | --- | --- | --- |
| CCCCCCC(C)OC(=O)COc1nc(F)c(Cl)c(N)c1Cl (centres unmarked) [Fluroxypyr-meptyl] | 0% | 11% | 6% | 5% | 1% | 5% | 50% | 41% and 42% |  |  |  |  |  |  |  |  |  |  |  |  |
| O=C(O)c1c(Cl)ccc2cc(Cl)cnc12 [Quinclorac, 3,7-dichloro-8-quinolinecarboxylic acid] |  |  |  |  |  |  |  |  | 5% | 6% | 31% | 65% | 5% | 6% | 5% | 26% | 5% | 10% | 15% | 11% |
